What was measured:
Test in all cases: Real-time PCR gene expression in aorta post MI
Type in all cases: in vivo, rat
[1] = tested on: IL-1β (interleukin 1 beta); settings: 2 weeks post-infarction
From the text: (§1) After intubation, rats were ventilated continuously (room air) using a small animal ventilator (Model 683, Harvard Apparatus, Holliston, Mass.). A left lateral thoracotomy incision was made along the 5th intercostal space and after the pericardium was opened, the heart was exteriorized using a retention suture placed at the apex. The left anterior descending coronary artery (LAD) was ligated twice using 6-0 prolene suture (Ethicon, Cornelia, Ga.). After chest closure with running 3-0 vicryl suture (Ethicon), rats were put in a recovery chamber with a heating pad and warming light. The post-operative survival rate reached 80%. […] Rats were fed a standard diet of Teklad rodent feed (Harlan) ad libitum and kept on a 12:12 h light-dark cycle. Rats were sacrificed at designated time intervals of 2 weeks and 4 weeks after surgery. […] Isolation of total RNA: […] Surrounding peri-adventitial tissues, fat, and endothelium were then carefully cleaned away and removed. The remaining vascular smooth muscle was then frozen with liquid nitrogen, pulverized into fine powder, and resuspended in 600 μl of Buffer RLT with β-ME (10 μl β-ME: 1 ml Buffer RLT, Qiagen, Valencia, Calif.). The lysate was pipetted directly onto a QIAshredder spin column (Qiagen) placed in a 2 ml collection tube and centrifuged for 5 minutes at 14000 rpm, 4° C. The supernatant was transferred to a new microcentrifuge tube and 1 volume of 70% ethanol was added and mixed. The cleared lysate was then transferred to an RNeasy mini-column (Qiagen) placed in a 2 ml collection tube and spun for 15 seconds at ≧10,000 rpm, 4° C. The flow-through was discarded and 700 μl of Buffer RW1 (Qiagen) was added to the RNeasy column. After the column was spun for 15 seconds at ≧10,000 rpm (4° C.), it was transferred into a new 2 ml collection tube, washed, spun twice with 500 μl Buffer RPE (Qiagen), and eluted with 40 μl of RNase-free water using a microcentrifuge (≧10,000 rpm, 4° C.) for 1 minute. Final RNA samples were stored at -20° C. to prevent degradation. Confirmation of microarray result by quantitative real-time PCR: The remaining RNA from the aortic or portal vein RNA sample was quantitatively converted to single stranded cDNA using the High-Capacity cDNA Archive Kit (Applied Biosystems, Foster City, Calif.). Briefly, 50 μl of RNA sample was mixed with 50 μl of 2×RT master mix (10 μl of 10× Reverse Transcription Buffer, 4 μl of 25× dNTPs, 10 μl of 10× random primers, 5 μl of […] Reverse Transcriptase at 50 U/μl, 21 μl of RNase-free H2O) and pipetted into 0.2 ml MICROAMP® PCR Reaction Tubes with Caps (Applied Biosystems, Foster City, Calif.). Reverse transcription was performed using a thermal cycler (Eppendorf Mastercycler gradient) with incubation conditions set at 25° C. for 10 minutes followed by 37° C. for 120 minutes. The synthesized cDNA was then mixed with TAQMAN® Universal PCR Master Mix (2.5 μl of cDNA+47.5 μl of RNase-free H2O+50 μl of Master Mix) and loaded onto 384-Well micro fluid cards for quantitative real-time PCR (TAQMAN® Low Density Arrays, Applied Biosystems). This was done with customer-selected TAQMAN® Gene Expression Assays preloaded into each of the 384 wells. The 7900 HT Gene Expression Micro Fluid Card Configuration 2 (Applied Biosystems) with a total of 24 targets was used; 22 targets were selected to include the results from the microarray study, and the remaining two targets were controls GAPDH and 18S controls. For each cDNA sample, four replicates were analyzed for real-time PCR. After all ports of the Micro Fluidic Card were loaded with cDNA, it was spun for even distribution into the wells using a Sorvall Legend centrifuge (1 minute at 1200 rpm). The array was then run on the Applied Biosystems 7900HT Fast Real-time PCR System, and the data were analyzed using an Applied Biosystems RQ Manager Software (SDS 2.1). […]

[2] = tested on: Fmr1 (fragile X mental retardation syndrome 1 homolog); settings: 2 weeks post-infarction
From the text: as §1

[3] = tested on: Gls2 (glutaminase 2 (liver, mitochondrial)); settings: 2 weeks post-infarction
From the text: as §1

[4] = tested on: Cxcl12 (chemokine (C-X-C motif) ligand 12); settings: 4 weeks post-infarction (increased at 2 weeks), FIG. 1
From the text: as §1

## C[C@H](CS)C(=O)N1CCC[C@H]1C(=O)O [Captopril, 1-[(2S)-3-mercapto-2-methylpropionyl]-L-proline]
[1]
  IL1-β expression, placebo or captopril therapy: did not demonstrate any difference
[2]
  Fmr1 expression, placebo or captopril therapy: did not demonstrate any difference
[3]
  Gls2 expression, placebo or captopril therapy: did not demonstrate any difference
[4]
  Cxcl12 expression, captopril versus placebo: difference disappeared

Source: patent US8293481B2, “Biomarkers for chronic vascular dysfunction” (Mayo Foundation for Medical Education and Research, priority 2006, dated 2012)
